Measured values taken from patent US7863285B2, “Purinone derivatives as HM74A agonists” (Incyte Corporation, priority 2006, dated 2011).

Experiments:
[1] = clinical, cited from earlier work; for lowering of plasma LDL: monotherapy
[2] = target: T1, human HM74a (Homo sapiens, UniProt Q8TDS4); test: cAMP assay; assay type: cell-based; design: expressed in transfected cells; details: CHO cells stably transfected with human HM74a; 5 μM forskolin; inhibition relative to DMSO controls
Procedure: CHO cells stably transfected with human HM74a were seeded at 7,500 cells/well in a 96-well plate in HAMS F12 medium with 10% FBS. The plate was incubated overnight at 37° C. and 5% CO2. The test compounds were prepared in a stimulation buffer containing 1×HANKS, 20 mM HEPES, 5 μM forskolin, and 0.25 mM IBMX. The media from the cell plate was removed before adding 30 μL of the test compounds. After 30 minute incubation at 37° C. and 5% CO2, the cAMP level was assayed using HitHunter cAMP XS assay kit (DiscoverX, CA). IC50 determinations were based on compound inhibition relative to DMSO controls.
Target sequence in this assay (Q8TDS4 whole entry): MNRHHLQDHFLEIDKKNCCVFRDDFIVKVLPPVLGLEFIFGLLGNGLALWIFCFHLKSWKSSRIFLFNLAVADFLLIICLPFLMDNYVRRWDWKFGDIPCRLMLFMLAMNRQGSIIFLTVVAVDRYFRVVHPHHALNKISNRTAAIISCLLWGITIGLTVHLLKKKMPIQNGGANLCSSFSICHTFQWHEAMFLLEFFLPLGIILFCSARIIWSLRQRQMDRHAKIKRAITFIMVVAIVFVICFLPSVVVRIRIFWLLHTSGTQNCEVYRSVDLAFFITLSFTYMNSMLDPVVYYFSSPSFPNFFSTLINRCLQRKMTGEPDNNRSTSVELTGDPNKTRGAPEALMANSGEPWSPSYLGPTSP

[3] = system: mature adipocytes; test: Adipocyte lipolysis assay; assay type: cell-based; details: glycerol in supernatants after overnight culture with IBMX (100 μM)
Procedure: Preadipocytes purchased from Zen Bio were plated at 8.7×10^4 cells/well in 96-well plates, differentiated for 14 days and mature adipocytes assayed during days 15 through 21. Adipocyte maturation is assessed by the presence of rounded cells with large lipid droplets in the cytoplasm. Following maturation, cells were washed and incubated overnight with IBMX (100 μM) and various concentrations of compound diluted in assay buffer containing a final DMSO concentration of 0.1%. After overnight culture, the glycerol concentration in the supernatants was determined with the Lipolysis Assay Kit purchased from Zen-Bio. Absorbance at 540 nm is directly proportional to the glycerol concentration in the sample. IC50 determinations were based on compound inhibition relative to DMSO controls. […] For example, the compound of Example 1 has an IC50 of 100 nM in this assay.

[4] = target: T1, human HM74a; test: GTPγS recruitment assay; assay type: biochemical; design: expressed in transfected cells; host or cells: HEK293 cells, transient transfection, membrane preparation; details: membranes of HEK293 cells transfected with human HM74a and Gα0; 35S GTPγS
Procedure: Membranes were prepared from HEK293 cells transiently transfected with human HM74a and Gα0 protein. Assays were performed in 384-well format in a volume of 50 μL per assay point. Serial dilutions of compounds were prepared in the assay buffer (20 mM HEPES pH. 7.4, 100 mM NaCl, 10 mM MgCl2, 10 mg/L saponin and 10 μM GDP) and mixed with membranes (2 μg per assay point) and ^35S GTPγS (Amersham, 0.3 nM) in the assay buffer. The mixtures were incubated at room temperature for 30 min and wheat germ agglutinin SPA beads (Amersham) (0.2 mg per assay point) in the assay buffer were added. After 30 min incubation with agitation, plates were centrifuged at 1500 g for 5 min and bound ^35S GTPγS was determined by counting on a TopCount scintillation counter.
Target sequence in this assay (Q8TDS4 whole entry): as above
Target sequence in this assay (P09471 2-354 partner limits assumed): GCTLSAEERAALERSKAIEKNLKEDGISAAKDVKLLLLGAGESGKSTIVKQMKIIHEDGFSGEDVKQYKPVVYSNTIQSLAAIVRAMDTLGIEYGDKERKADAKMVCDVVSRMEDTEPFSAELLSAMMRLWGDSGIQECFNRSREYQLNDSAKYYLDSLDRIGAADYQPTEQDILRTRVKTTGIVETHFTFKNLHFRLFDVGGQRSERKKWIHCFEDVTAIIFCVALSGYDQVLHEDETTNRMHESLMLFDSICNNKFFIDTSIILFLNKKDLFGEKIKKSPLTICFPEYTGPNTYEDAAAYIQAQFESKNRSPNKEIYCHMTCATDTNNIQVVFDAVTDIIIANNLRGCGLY
Target sequence in this assay (P62873 2-340 partner limits assumed): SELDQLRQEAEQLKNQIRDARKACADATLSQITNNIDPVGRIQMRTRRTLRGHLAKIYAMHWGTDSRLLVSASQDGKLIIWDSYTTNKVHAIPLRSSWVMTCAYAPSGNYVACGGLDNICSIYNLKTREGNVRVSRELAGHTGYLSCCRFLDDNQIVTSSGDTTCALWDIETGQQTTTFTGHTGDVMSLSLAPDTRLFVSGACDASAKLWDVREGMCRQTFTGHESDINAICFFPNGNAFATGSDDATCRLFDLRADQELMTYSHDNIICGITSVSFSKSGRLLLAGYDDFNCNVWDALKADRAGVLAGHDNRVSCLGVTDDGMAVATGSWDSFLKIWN
Target sequence in this assay (P59768 2-68 partner limits assumed): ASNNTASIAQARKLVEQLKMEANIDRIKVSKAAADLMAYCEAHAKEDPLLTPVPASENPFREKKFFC

| IC50 [2] | IC50 [3] | EC50 [4] | SMILES | lowering of plasma LDL [1] | decrease of plasma triglycerides [1] | raising HDL levels [1] |
| --- | --- | --- | --- | --- | --- | --- |
|  |  |  | O=C(O)c1cccnc1 [Nicotinic acid, nicotinic acid] | 16% | 38% | 20-30% |
|  |  |  | O=C1[C@H](CC[C@H](O)c2ccc(F)cc2)[C@@H](c2ccc(O)cc2)N1c1ccc(F)cc1 [Ezetimibe] | 20% |  |  |
| 20 nM | 100 nM | 61 nM | CCCCCn1c(=O)n2cnnc2c2[nH]c(C(F)(F)F)nc21 [Example 1, 6-pentyl-8-(trifluoromethyl)-6,9-dihydro-5H-[1,2,4]triazolo[3,4-i]purin-5-one] |  |  |  |
